# Experimental data published in article PMC8469034, “Catalytic Asymmetry in Homodimeric H^+-Pumping Membrane Pyrophosphatase Demonstrated by Non-Hydrolyzable Pyrophosphate Analogs” (International Journal of Molecular Sciences, 2021).
# Like-named read-outs stand apart in the source and are kept apart here.
# T1: Dh-mPPase (Desulfitobacterium hafniense, UniProt B8FXV7)
# T1 construct: gene hppA; full-length membrane protein expressed in E. coli C41(DE3)ril, assayed in inverted membrane vesicles; homodimer; K+-dependent H+-transporting, EC 7.1.3.1
# T1 sequence (B8FXV7 1-671): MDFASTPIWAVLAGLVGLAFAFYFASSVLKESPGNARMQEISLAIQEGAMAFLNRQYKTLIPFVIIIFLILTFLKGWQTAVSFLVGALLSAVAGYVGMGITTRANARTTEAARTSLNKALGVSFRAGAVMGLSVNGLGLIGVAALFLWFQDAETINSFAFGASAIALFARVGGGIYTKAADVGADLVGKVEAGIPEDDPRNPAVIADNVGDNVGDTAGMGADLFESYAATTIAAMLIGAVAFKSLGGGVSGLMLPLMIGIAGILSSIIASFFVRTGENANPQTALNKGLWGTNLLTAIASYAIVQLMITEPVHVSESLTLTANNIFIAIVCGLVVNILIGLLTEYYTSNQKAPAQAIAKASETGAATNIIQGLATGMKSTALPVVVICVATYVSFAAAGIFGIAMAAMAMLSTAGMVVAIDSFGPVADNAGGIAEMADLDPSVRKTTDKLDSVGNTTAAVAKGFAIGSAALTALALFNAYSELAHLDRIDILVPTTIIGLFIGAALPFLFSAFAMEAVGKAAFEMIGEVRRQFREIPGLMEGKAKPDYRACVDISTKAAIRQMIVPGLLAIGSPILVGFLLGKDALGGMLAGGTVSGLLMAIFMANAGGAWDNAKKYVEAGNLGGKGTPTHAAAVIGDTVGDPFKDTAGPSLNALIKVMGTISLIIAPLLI
# B1: Dh-mPPase (Desulfitobacterium hafniense DCB-2) (protein)
# chain: MDFASTPIWAVLAGLVGLAFAFYFASSVLKESPGNARMQEISLAIQEGAMAFLNRQYKTLIPFVIIIFLILTFLKGWQTAVSFLVGALLSAVAGYVGMGITTRANARTTEAARTSLNKALGVSFRAGAVMGLSVNGLGLIGVAALFLWFQDAETINSFAFGASAIALFARVGGGIYTKAADVGADLVGKVEAGIPEDDPRNPAVIADNVGDNVGDTAGMGADLFESYAATTIAAMLIGAVAFKSLGGGVSGLMLPLMIGIAGILSSIIASFFVRTGENANPQTALNKGLWGTNLLTAIASYAIVQLMITEPVHVSESLTLTANNIFIAIVCGLVVNILIGLLTEYYTSNQKAPAQAIAKASETGAATNIIQGLATGMKSTALPVVVICVATYVSFAAAGIFGIAMAAMAMLSTAGMVVAIDSFGPVADNAGGIAEMADLDPSVRKTTDKLDSVGNTTAAVAKGFAIGSAALTALALFNAYSELAHLDRIDILVPTTIIGLFIGAALPFLFSAFAMEAVGKAAFEMIGEVRRQFREIPGLMEGKAKPDYRACVDISTKAAIRQMIVPGLLAIGSPILVGFLLGKDALGGMLAGGTVSGLLMAIFMANAGGAWDNAKKYVEAGNLGGKGTPTHAAAVIGDTVGDPFKDTAGPSLNALIKVMGTISLIIAPLLI
# notes: full-length membrane protein expressed in E. coli C41(DE3)ril, assayed in inverted membrane vesicles; homodimer; K+-dependent H+-transporting, EC 7.1.3.1
# Legend:
# [1] = target: T1, Dh-mPPase; assay: continuous Pi analyzer assay of PPi hydrolysis, inverted membrane vesicles, global fit; assay type: biochemical
# From the text: continuous Pi analyzer assay of PPi hydrolysis, inverted membrane vesicles, global fit on Dh-mPPase
# [2] = substrate: O=P(O)(O)OP(=O)(O)O; assay: cells, lysate or membranes; assay type: biochemical, Desulfitobacterium hafniense; details: varied free Mg2+ (extrapolated to Mg2+ saturation), 50 mM K+, 0.1 M MOPS-KOH pH 7.2, 25 °C, no inhibitor, first site of dimer, macroscopic, substrate counted as Mg2PPi
molecule,measurement,setting,value
O=P(O)(O)NP(=O)(O)O [IDP],Ki,[1]; read-out: Value / IDP,4.2 ± 0.2 µM
CC(O)(P(=O)(O)O)P(=O)(O)O [HEDP],Ki,[1]; read-out: Value / HEDP,27 ± 1 µM
NC(P(=O)(O)O)P(=O)(O)O [AMDP],Ki,[1]; read-out: Value / AMDP,0.4 ± 0.02 µM
B1,Km,[2],2.2 ± 0.1 µM
